Test results: PMC9599520, “The Membrane Activity of the Amphibian Temporin B Peptide Analog TB_KKG6K Sheds Light on the Mechanism That Kills Candida albicans” (mSphere, 2022)
Values joined by “and” are separate entries in the source; they are usually repeats but may differ in a detail not shown here. Equal values may be shown once. Where no end group is shown, it is not given here.

Columns and labels:
[1] = Vesicle leakage assay, PC-PS-ergosterol; type: biochemical; conditions: for relative change in leakage compared to PC-LUVs: P ≤ 0.05; for % Leakage: PC-PS-ergosterol-LUVs, 50 μM lipid, ANTS-DPX, HEPES pH 7.4, 30 min, 37°C, 1% Triton X-100 = 100%, mean ± SD, 2 experiments in duplicates
C. albicans cells = experiment: Ultrastructural analysis by electron microscopy of cryo-fixed cells; conditions: 30 μM, 60 min, 30°C
[2] = Vesicle leakage assay, PC-CL; type: biochemical; conditions: for relative change in leakage compared to PC-LUVs: P ≤ 0.05; for % Leakage: PC-CL-LUVs, 50 μM lipid, ANTS-DPX, HEPES pH 7.4, 30 min, 37°C, 1% Triton X-100 = 100%, mean ± SD, 2 experiments in duplicates
[3] = system: mammalian cells; primary human skin cells and three-dimensional skin epidermal models; conditions: cited from earlier work
[4] = cited from earlier work
[5] = Vesicle leakage assay, PG; type: biochemical; conditions: for relative change in leakage compared to PC-LUVs: P ≤ 0.05; for % Leakage: PG-LUVs, 50 μM lipid, ANTS-DPX, HEPES pH 7.4, 30 min, 37°C, 1% Triton X-100 = 100%, mean ± SD, 2 experiments in duplicates
[6] = Vesicle leakage assay, PC-PE-ergosterol; type: biochemical; conditions: for relative change in leakage compared to PC-LUVs: P ≤ 0.05; for % Leakage: PC-PE-ergosterol-LUVs, 50 μM lipid, ANTS-DPX, HEPES pH 7.4, 30 min, 37°C, 1% Triton X-100 = 100%, mean ± SD, 2 experiments in duplicates
[7] = Vesicle leakage assay, PC-PI; type: biochemical; conditions: for relative change in leakage compared to PC-LUVs: P ≤ 0.05; for % Leakage: PC-PI-LUVs, 50 μM lipid, ANTS-DPX, HEPES pH 7.4, 30 min, 37°C, 1% Triton X-100 = 100%, mean ± SD, 2 experiments in duplicates
[8] = Vesicle leakage assay, PC-sphingomyelin; type: biochemical; conditions: for relative change in leakage compared to PC-LUVs: P ≤ 0.05; for % Leakage: PC-sphingomyelin-LUVs, 50 μM lipid, ANTS-DPX, HEPES pH 7.4, 30 min, 37°C, 1% Triton X-100 = 100%, mean ± SD, 2 experiments in duplicates
[9] = system: C. albicans cell membrane; experiment: Membrane depolarization assay with DiSC3(5) dye; type: cell-based, Candida albicans
[10] = Vesicle leakage assay, PC-PE; type: biochemical; conditions: for relative change in leakage compared to PC-LUVs: P ≤ 0.05; for % Leakage: PC-PE-LUVs, 50 μM lipid, ANTS-DPX, HEPES pH 7.4, 30 min, 37°C, 1% Triton X-100 = 100%, mean ± SD, 2 experiments in duplicates
[11] = Vesicle leakage assay, PC; type: biochemical; conditions: PC-LUVs, 50 μM lipid, ANTS-DPX, HEPES pH 7.4, 30 min, 37°C, 1% Triton X-100 = 100%, mean ± SD, 2 experiments in duplicates
[12] = Vesicle leakage assay, PC-PS; type: biochemical; conditions: for % Leakage: PC-PS-LUVs, 50 μM lipid, ANTS-DPX, HEPES pH 7.4, 30 min, 37°C, 1% Triton X-100 = 100%, mean ± SD, 2 experiments in duplicates
[13] = Vesicle leakage assay, PG-PE-CL; type: biochemical; conditions: PG-PE-CL-LUVs, 50 μM lipid, ANTS-DPX, HEPES pH 7.4, 30 min, 37°C, 1% Triton X-100 = 100%, mean ± SD, 2 experiments in duplicates
[14] = Vesicle leakage assay, PC-ceramide; type: biochemical; conditions: for % Leakage: PC-ceramide-LUVs, 50 μM lipid, ANTS-DPX, HEPES pH 7.4, 30 min, 37°C, 1% Triton X-100 = 100%, mean ± SD, 2 experiments in duplicates
[15] = Vesicle leakage assay, PC-ergosterol; type: biochemical; conditions: for relative change in leakage compared to PC-LUVs: P ≤ 0.05; for % Leakage: PC-ergosterol-LUVs, 50 μM lipid, ANTS-DPX, HEPES pH 7.4, 30 min, 37°C, 1% Triton X-100 = 100%, mean ± SD, 2 experiments in duplicates

## KKLLPIVKNLLKSLL-NH2 (C-terminus assumed) [TB_KKG6K]
[1]; 2 μM peptide
  relative change in leakage compared to PC-LUVs: −36%
[1]; 4 μM peptide
  relative change in leakage compared to PC-LUVs: −26%
[1]; 2 μM peptide (25:1)
  % Leakage: 21.8 ± 3.5%
[1]; 4 μM peptide (12:1)
  % Leakage: 30.1 ± 4.6%
[1]; 8 μM peptide (6:1)
  % Leakage: 46.3 ± 4.2%
C. albicans cells
  cell lysis: indications of cell lysis were not observed
  ultrastructural damage: severe ultrastructural damage to the vast majority of cells
[2]; 2 μM peptide
  relative change in leakage compared to PC-LUVs: −93%
[2]; 4 μM peptide
  relative change in leakage compared to PC-LUVs: −75%
[2]; 8 μM peptide
  relative change in leakage compared to PC-LUVs: +20%
[2]; 2 μM peptide (25:1)
  % Leakage: 2.2 ± 0.8%
[2]; 4 μM peptide (12:1)
  % Leakage: 9.9 ± 0.7%
[2]; 8 μM peptide (6:1)
  % Leakage: 59.0 ± 5.8%
[3]
  hemolysis and cytotoxicity to mammalian cells in vitro: neither hemolytic nor cytotoxic
  tolerance by primary human skin cells and three-dimensional skin epidermal models in vitro: well tolerated
[4]
  hydrophobicity (hydrophobic amino acids): 53%
[4]; pH 7
  positive net charge: +3.9
[5]; 4 μM peptide
  relative change in leakage compared to PC-LUVs: +30%
[5]; 8 μM peptide
  relative change in leakage compared to PC-LUVs: +20%
[5]; 2 μM peptide (lipid:peptide 25:1)
  % Leakage: 56% ± 4% and 56.0 ± 4.0%
[5]; 4 μM peptide (12:1)
  % Leakage: 57.7 ± 3.9%
[5]; 8 μM peptide (6:1)
  % Leakage: 61% ± 4% and 61.1 ± 4.1%
[6]; 2 μM peptide
  relative change in leakage compared to PC-LUVs: −56%
[6]; 4 μM peptide
  relative change in leakage compared to PC-LUVs: −58%
[6]; 8 μM peptide
  relative change in leakage compared to PC-LUVs: −68%
[6]; 2 μM peptide (25:1)
  % Leakage: 14.8 ± 0.8%
[6]; 4 μM peptide (12:1)
  % Leakage: 17.1 ± 6.0%
[6]; 8 μM peptide (6:1)
  % Leakage: 15.8 ± 1.3%
[7]; 4 μM peptide
  relative change in leakage compared to PC-LUVs: +29%
[7]; 8 μM peptide
  relative change in leakage compared to PC-LUVs: +15%
[7]; 2 μM peptide (25:1)
  % Leakage: 37.7 ± 3.9%
[7]; 4 μM peptide (12:1)
  % Leakage: 52.5 ± 2.4%
[7]; 8 μM peptide (6:1)
  % Leakage: 56.5 ± 2.9%
[8]; 2 μM peptide
  relative change in leakage compared to PC-LUVs: −44%
[8]; 4 μM peptide
  relative change in leakage compared to PC-LUVs: −34%
[8]; 8 μM peptide
  relative change in leakage compared to PC-LUVs: −31%
[8]; 2 μM peptide (25:1)
  % Leakage: 18.8 ± 3.1%
[8]; 4 μM peptide (12:1)
  % Leakage: 26.5 ± 1.0%
[8]; 8 μM peptide (6:1)
  % Leakage: 33.9 ± 2.0%
[9]; 1 μM peptide
  time to maximum DiSC3(5) fluorescence intensity: 15 min
[9]; 2 μM peptide
  time to maximum DiSC3(5) fluorescence intensity: 25 min
[9]; 1 × 10^6 cells/mL, 30°C, 60 min, TB analog 0.5, 1, 2 μM, Triton X-100 1% (wt/vol), PCγ^C-terminal 32 μM
  membrane depolarization, DiSC3(5) fluorescence intensity: induced membrane depolarization in a concentration- and time-dependent manner
[10]; 2 μM peptide
  relative change in leakage compared to PC-LUVs: −32%
[10]; 4 μM peptide
  relative change in leakage compared to PC-LUVs: −22%
[10]; 8 μM peptide
  relative change in leakage compared to PC-LUVs: −19%
[10]; 2 μM peptide (25:1)
  % Leakage: 22.8 ± 1.3%
[10]; 4 μM peptide (12:1)
  % Leakage: 31.5 ± 2.1%
[10]; 8 μM peptide (6:1)
  % Leakage: 40.0 ± 3.1%
[11]; 2 μM peptide (25:1)
  % Leakage: 33.8 ± 3.0%
[11]; 4 μM peptide (12:1)
  % Leakage: 40.6 ± 3.2%
[11]; 8 μM peptide (6:1)
  % Leakage: 49.2 ± 4.5%
[12]; 2 μM peptide, P ≤ 0.05
  relative change in leakage compared to PC-LUVs: −33%
[12]; 2 μM peptide (25:1)
  % Leakage: 22.6 ± 3.3%
[12]; 4 μM peptide (12:1)
  % Leakage: 38.1 ± 10.5%
[12]; 8 μM peptide (6:1)
  % Leakage: 47.4 ± 15.1%
[13]; 2 μM peptide (25:1)
  % Leakage: 5.3 ± 1.3%
[13]; 4 μM peptide (12:1)
  % Leakage: 40.2 ± 0.9%
[13]; 8 μM peptide (6:1)
  % Leakage: 61% ± 3% and 61.5 ± 2.7%
[14]; 2 μM peptide, P ≤ 0.05
  relative change in leakage compared to PC-LUVs: −47%
[14]; 2 μM peptide (25:1)
  % Leakage: 17.9 ± 1.8%
[14]; 4 μM peptide (12:1)
  % Leakage: 39.9 ± 2.4%
[14]; 8 μM peptide (6:1)
  % Leakage: 44.8 ± 1.9%
[15]; 2 μM peptide
  relative change in leakage compared to PC-LUVs: −71%
[15]; 4 μM peptide
  relative change in leakage compared to PC-LUVs: −68%
[15]; 8 μM peptide
  relative change in leakage compared to PC-LUVs: −66%
[15]; 2 μM peptide (25:1)
  % Leakage: 9.8 ± 1.5%
[15]; 4 μM peptide (12:1)
  % Leakage: 13.0 ± 0.6%
[15]; 8 μM peptide (6:1)
  % Leakage: 16.9 ± 2.0%
